Test results from patent publication US10222370B2, “Screening assay for choice of prebiotic to prevent/treat gastrointestinal and systemic diseases” (Rush University Medical Center, priority 2014, dated 2019).

Experiments:
Type in all cases: cell-based, human
[1] = test system: T84 monolayers co-cultured with CD3/28-activated PBMC; assay: T84/PBMC co-culture, barrier integrity by transepithelial electrical resistance (TER); conditions: apical exposure, 24 h and 48 h, vs medium control
Description: (§1) The T84 cells are grown in DMEM/F-12 (1:1) supplemented with GlutaMAX®, 10% fetal bovine serum and […] penicillin/streptomycin. (T84 cells (human colorectal carcinoma cell line, ATCC® CCL-248™, Manassas, Va., USA). T84 cells were seeded in 12-well transwell insert filters (Coming Inc., NY, USA) and cultured in T84 cell medium for 3-4 weeks till co-culture with PBMC. Transepithelial electrical resistance (TER) was measured during culture, which generally increases to >1500 Ω×cm^2 and becomes stable after 3-4 weeks of culture. When TER was ≥2000 Ω×cm^2, T84 monolayers 14 were co-cultured with 1.5×10^6 PBMC 16 in the basolateral chamber.
(§2) The PBMC 16 for use in the co-cultures are isolated from 20 mL fresh blood from healthy controls (n=6) and subjects with food allergy (n=8) (Table 1). The average age of healthy controls was 36 (range 24-54) vs. 51 (range 26-74) for food allergic subjects (P>0.05). PBMC were isolated by density gradient centrifugation using lymphocyte separation medium according to manufacturer's protocol (Cellgro, Mediatec, Inc., Manassas, Va., USA). PBMC were collected in RPMI1640 supplemented with L-glutamine (Gibco), 2.5% fetal bovine serum, 1% penicillin/streptomycin and 1% sodium pyruvate (Sigma, St. Louis, Mo., USA) (PBMC medium) at 1×10^6 cell/mL.
(§3) T84/PBMC co-cultures were maintained in PBMC medium. PBMC were stimulated using CD3 and CD28 antibodies (clone OKT3 and CD28.2, 0.2 μg/mL; eBioscience, San Diego, Calif., USA) and simultaneously IEC were stimulated apically with Pam3CSK4, LPS or type C CpG oligonucleotide M362 (Invivogen, San Diego, Calif., USA) as previously described. Cultures were maintained at 37° C./5% CO2 for indicated time points.
(§4) The barrier integrity of T84 monolayers was assessed by measuring the TER and paracellular permeability to 4 kDa FITC-dextran. In short, TER was measured using a dual electrode system designed for cell culture insert analysis (EVOM; World Precision Instruments, Sarasota, Fla.) prior to co-culture and at indicated time points during co-culture. Data is reported as percentage of the initial TER value measured before co-culture. For assessment of permeability, T84 monolayers were separated from PBMC and cultured in PBMC medium for 1 h. The monolayers were then apically exposed to 1 mg/mL 4 kDa FITC-dextran (Sigma) and basolateral supernatants were collected after 60 min. FITC-dextran was measured at excitation wavelength 485 nm and emission wavelength 520 nm. The 4 kDa FITC-dextran flux was expressed as pmol/(h×cm^2).
In some experiments, PBMC are stimulated using antibodies against CD3 and CD28 and T84 cell monolayers were simultaneously exposed to synthetic TLR ligands or fermentation product 12 (co-culture of stool samples without or with different prebiotics). SCFA content (acetate, propionate and butyrate) in the fermentation products (“Fermenta”) 12 was analyzed by HPLC. TER was measured at t=0 h, t=4 h, t=18 h and t=24 h to monitor changes in the barrier integrity of the T84 monolayers. Non-limiting example of prebiotics include commercially available inulin and fructose oligosaccharides (FOS) that promote production of Butyrate by intestinal bacteria, galactose oligosaccharides (GOS) that promote growth of bifidobacteria in the intestine or prebiotics like resistant starch, corn arbionoxylan that promotes propionate. Other prebiotics may also be used.

[2] = test system: T84 monolayers co-cultured with CD3/28-activated PBMC; assay: T84/PBMC co-culture, paracellular permeability to 4 kDa FITC-dextran; conditions: PBMC from healthy controls; 48 h co-culture; vs medium control
Description: as §1, §2
T84/PBMC co-cultures were maintained in PBMC medium. […]
as §4, with “For assessment of permeability, T84 monolayers were separated from PBMC and cultured in PBMC medium for 1 h. The monolayers were then apically exposed to 1 mg/mL 4 kDa FITC-dextran (Sigma) and basolateral supernatants were collected after 60 min.” left out

T84/PBMC co-cultures = assay: Cytokine production in T84/PBMC co-cultures with apical TLR ligands (ELISA); conditions: T84/PBMC, 24 h, mean ± SEM
Description: as §1, §2, §3
(§5) Cytokine levels were measured by ELISA. IL-6, IL-8, IL-10, IL-13, IFN-γ and TNF-α were measured using the Ready-Set-Go!® ELISA kit from eBioscience according to manufacturer's protocol (eBioscience, Inc., San Diego, Calif., USA).
(§6) To evaluate whether epithelial TLR ligation modulates cytokine production by the PBMC, basolateral supernatants were collected 24 h after co-culture. Exposure of CD3/28-activated PBMC in the absence of IEC to TLR ligands served as a control to evaluate the contribution of IEC in modulating the cytokine production by PBMC. First we evaluated the production of IFN-γ and IL-13 as a reflection of a Th1 and Th2 type effector response (Table 3). No significant changes in the production of IFN-γ or IL-13 were observed, though IFN-γ production by the PBMC from food allergic subjects tended to be lower in T84/PBMC co-cultures (P=0.093). […] This was not observed when PBMC were stimulated with CpG DNA in absence of T84 cells (FIG. 7B).

PBMC = assay: Cytokine production by CD3/28-activated PBMC in absence of T84 cells (ELISA); conditions: for IFN-γ / IL-6 / IL-8 / IL-10 / IL-13 / TNF-α: PBMC in absence of T84 cells, 24 h, mean ± SEM; for IL-10/IL-13 ratio: absence of T84 cells
Description: as §2, §3, §5, §6

[3] = PBMC from food allergic subjects

For LPS, the “TER of T84 monolayers” value [1, 3] was “did not affect”, the “TER of T84 monolayers” value ([1]; PBMC from healthy controls) was “did not affect” and the “permeability of T84 monolayers to 4 kDa FITC-dextran” value [2] was “increased the permeability”. For the same substance, the IL-6 (T84/PBMC co-cultures; FA (food allergy) PBMC) was 7410 ± 2112 pg/mL, the IFN-γ (T84/PBMC co-cultures; FA PBMC) was 4390 ± 1700 pg/mL and the IL-8 (T84/PBMC co-cultures; FA PBMC) was 17103 ± 4334 pg/mL. The IL-10 (T84/PBMC co-cultures; FA PBMC) was 777.6 ± 163.2 pg/mL, the IL-13 (T84/PBMC co-cultures; FA PBMC) was 33.8 ± 11.0 pg/mL and the TNF-α (T84/PBMC co-cultures; FA PBMC) was 2403 ± 516 pg/mL. The IL-6 (T84/PBMC co-cultures; HC (healthy control) PBMC) was 9040 ± 2424 pg/mL, the IFN-γ (T84/PBMC co-cultures; HC PBMC) was 10392 ± 2967 pg/mL and the IL-8 (T84/PBMC co-cultures; HC PBMC) was 23124 ± 5683 pg/mL. The IL-10 (T84/PBMC co-cultures; HC PBMC) was 632.7 ± 125.1 pg/mL, the IL-13 (T84/PBMC co-cultures; HC PBMC) was 31.3 ± 9.1 pg/mL and the TNF-α (T84/PBMC co-cultures; HC PBMC) was 2928 ± 712 pg/mL. For the same substance, the IFN-γ (PBMC; FA) was 2188 ± 908 pg/mL, the IL-6 (PBMC; FA) was 9909 ± 2073 pg/mL and the IL-8 (PBMC; FA) was 35682 ± 4770 pg/mL. For the same substance, the IL-10 (PBMC; FA) was 586 ± 159.4 pg/mL, the IL-13 (PBMC; FA) was 34.0 ± 10.7 pg/mL and the TNF-α (PBMC; FA) was 945.4 ± 294 pg/mL. The IFN-γ (PBMC; HC) was 6070 ± 2282 pg/mL, the IL-6 (PBMC; HC) was 12399 ± 2174 pg/mL and the IL-8 (PBMC; HC) was 43034 ± 2960 pg/mL. It also gave an IL-10 (PBMC; HC) of 545.4 ± 134.7 pg/mL, an IL-13 (PBMC; HC) of 28.3 ± 8.7 pg/mL and a TNF-α (PBMC; HC) of 2607 ± 1165 pg/mL. The IL-10/IL-13 ratio (PBMC; [3]) was “increased” and the IL-10/IL-13 ratio (PBMC; PBMC from healthy controls) was “enhanced”.
